Assay results taken from patent publication US20030225003A1, “Antimicrobial therapeutic compositions for oral and topical use” (priority 2002, published 2003).
Entries after “also recorded” stand apart in the source; their conditions may differ.

Assays:
diarrhea = test: Effect of menthocarvol capsules on patients with diarrhea; format: in vivo, human; details: for time to complete recovery: with oral rehydration
Method: (§1) In one embodiment menthocarvol was made by reacting carvacrol with hydrogen under a nitrogen atmosphere in the presence of platinum, as a catalyst, to form menthocarvol. The menthocarvol was administered orally as capsules and topically as ointments to human volunteers to establish that the preliminary preferred formulation functioned to cure specific disease conditions.
Four human subjects were selected for this study with menthocarvol. In this study, the diarrhea symptoms were likely, from either acute bacterial infectous causes or food poisoning. The menthocarvol was administered orally in the form of capsules. Each 500 mg capsule contained 35 mg of the active ingredient. The therapy for each subject was usually oral administration of two 500 mg capsules.

periodontal disease = test: Effect of orally applied menthocarvol solution on periodontal disease; format: in vivo, human
Method: A study on three subjects was performed to test the effectiveness of orally applied ointments containing menthocarvol to treat periodontal disease in humans. The preliminary formulation used was first was a 3% solution of menthocarvol followed by treatment with a 0.6% solution, administered twice a week for three months. The treatment was given with a syringe and applied orally to the affected areas between the teeth at the gum line. […] This phenomenon disappeared in approximately two hours.

chronic fatigue syndrome = test: Effect of menthocarvol (oral capsule or topical ointment) on chronic fatigue; format: in vivo, human
Method: as §1
The presence of bacteria ([…]), parasites (entamoeba gingivalis, or trichomonas tenax) and/or fungi (Candida, or Aspergillus species) in the mouth, nose, or sinus cavities is often accompanied by a history of generalized malaise, fatigue, and frequent headaches, frequently referred to as general fatigue syndrome. Laboratory testing for pathogens is usually negative. People suffering from fatigue syndrome typically function at a substantially lower level of activity than they were capable of before the onset of fatigue symptoms. Fatigue is not improved by bed rest and may be exacerbated by physical or mental activity. Moreover, the presence of some microorganisms in the stomach (i.e. Helicobacter pylori) and bowels, especially in diverticulas (outpouchings of the intestinal mucosa), is often accompanied by malaise and headache.
In the United States, colonic diverticula occurs in approximately 50% of individuals older than 60 years of age. Treatment with menthocarvol of volunteers suffering from this chronic fatigue syndrome was conducted. The menthocarvol therapy was administered in an oral dose of a single 250 mg capsule (17.5 mg active ingredient) or 500 mg capsule (35 mg active ingredient). Two of the subjects, who had localized pain in an extremity, were treated topically with menthocarvol in an ointment (3% active ingredient in lanolin oil). A total of six active individuals complaining of fatigue syndrome participated in this study.

[1] = cited from earlier work
[2] = four patients, two 500 mg capsules orally
[3] = six individuals, oral and topical formulations

Compound | time to complete recovery (diarrhea; Case 3, two 500 mg capsules orally) [h] | cure of diarrhea, all four patients (diarrhea; [2]) | unpleasant or adverse side effects (diarrhea; [2]) | time to complete recovery (diarrhea; single cases, two 500 mg capsules orally) | local side effect (tingling sensation) (periodontal disease; 0.6% solution) | infection and observable periodontal disease (periodontal disease; 0.6% solution only, same three patients) | local side effect on gums and tongue (periodontal disease; 3% solution) | necrotic effect on the epithelial cells lining the mouth cavity (periodontal disease; 3% solution) | time until the tingling sensation disappeared (periodontal disease; 3% solution) | inflammation of gums (periodontal disease; 3% solution applied at the gum line, three patients) | effect on fatigue syndrome symptoms (chronic fatigue syndrome; Case 4, oral 500 mg capsule (35 mg active ingredient) after breakfast for five days) | effect on fatigue syndrome symptoms (chronic fatigue syndrome; single cases, oral 250 mg capsule (17.5 mg active ingredient) after breakfast for five or ten days) | adverse side effects (chronic fatigue syndrome; single cases, oral 250 mg or 500 mg capsule after breakfast for five days) | effect on localized pain in an extremity (chronic fatigue syndrome; single cases, topical cream, 3% active ingredient in lanolin oil, applied before exercise) | effect on fatigue and pain, all cases (chronic fatigue syndrome; [3]) | unpleasant or adverse side effects, all subjects (chronic fatigue syndrome; [3]) | solubility in lipids [1]
CC(C)C1CCC(C)C(O)C1 (stereo not drawn) [menthocarvol, hexahydrocarvacrol] | 24 | the diarrhea was cured quickly | None of the patients reported unpleasant or adverse side effects | three and two | This side effect was not observed | some improvement | a temporary tingling sensation on the gums | no observable necrotic effect | approximately two | a marked improvement in the inflammation of their gums was observed | the fatigue and muscle soreness disappeared | the symptoms of malaise and unrefreshing sleep disappeared; also recorded: The sore throat and pain disappeared after five days of treatment; also recorded: the symptoms of fatigue and headache were relieved | No adverse side effects were reported; also recorded: No adverse side affects were reported | The signs of leg and foot muscle fatigue disappeared after the tenth treatment; also recorded: The pain and swelling was significantly reduced after six applications | positive effects on the fatigue and pain | No subjects complained of unpleasant or adverse side effects | 
CC1CCC(C(C)C)C(O)C1 (stereo not drawn) [menthol, 1-Methyl-4-isopropyl cyclohexane-3-ol, reference compound] |  |  |  |  |  |  |  |  |  |  |  |  |  |  |  |  | soluble in lipids
Cc1ccc(C(C)C)cc1O [carvacrol, 5-isopropyl-2-methylphenol] |  |  |  |  |  |  |  |  |  |  |  |  |  |  |  |  | soluble in lipids
